Reference: patent publication US20200352918A1, “COMPOUNDS AND METHODS FOR TREATING OR PREVENTING FIBROSIS” (priority 2019, published 2020)
Where a name gives a salt, the structure may show the parent alone.

System: iFA phenotype of mesenchymal-like cells on 13 kPa hydrogels
Test: iFA-prevention phenotypic high-content drug screen (iFA model)
Assay type: cell-based, human
Conditions: for Efficacy in secondary screen: assay repeated with compound sourced commercially or from additional library materials
Protocol: Mesenchymal-like cells were cultured on 13 kPa functionalized polyacrylamide gels that were prepared as follows. 187.5 μl of 40% acrylamide, 60 μl of 2% bis-acrylamide and 8.55 μl of sodium bisulfate in a final volume of 990 μl of water was incubated for 20 min at room temperature to degas the mixture. To this mixture, 0.10% ammonium persulfate and 0.15% TEMED were added, mixed and 100 μl of the solution was added onto a 0.4% 3-(Trimethoxysily) propyl methacrylate pH 3.5 treated coverslip. A 2% dimethyl dichlorosilane in chloroform treated round glass coverslip was then inverted on the acrylamide solution and allowed to polymerize for 15 min between the two surfaces. The top coverslip was gently removed, and the bottom coverslips with the hydrogel were transferred to appropriate multi-well low adherent tissue culture plate containing coupling buffer (0.1 M sodium phosphate dibasic, 0.1 M sodium phosphate monobasic) pH 8. To functionalize the hydrogel, 1 part of 0.1 M p-benzoquinone in dioxane was added to the hydrogels containing 4 parts of coupling buffer and incubated at 37° C. for 30 min. The gel was then successively washed with 20% dioxane in water, water, 0.1 M sodium acetate buffer at pH 4.0 containing 1.0 M sodium chloride, 0.1 M sodium bicarbonate solution at pH 8.5 containing 1.0 M sodium chloride, and finally with coupling buffer at pH 7.5. The hydrogels were then coated with 0.1% gelatin for 2 hrs prior to seeding the cells. Cells were seeded at a density of 3000 cells/cm^2.
A phenotypic high-content drug screen was prepared to identify compounds capable of preventing the iFA phenotype in a 96-well format. An ImageXpress XL high-throughput imager with a 4× Plan objective (N/A 0.20) was used with image based focusing. Briefly, 100 μL media were plated in each well of 96 well plate using a Thermo Multidrop non-contact dispenser. Using a custom V&P pin tool mounted to a Beckman FX liquid handler, 1.5 μL compounds or DMSO were added. Mesenchymal-like cells were added as a suspension using the Multidrop at a density of 3.5×10^3 cells/well. The resulting compound concentration was 10 μM. Cells were imaged after 7 days of incubation at 37° C. and 5% CO2: A final of 0.5 μg/ml of Calcein AM and/or 10 μg/ml propidium iodide (viability dye) with 1 μg/ml Hoechst 33342 were added and imaged using the ImageXpress XL system. Data mining was performed using a custom module consisting of the following steps: The image background was removed using a top-hat filter with 25 μm round shape polisher. Next, cellular aggregates and individual spindle-shaped cells were identified. Aggregates of cells were defined by size with a cut-off of 60 to 200 micron and an intensity of at least 200 gray scales over background. Individual spindle-shaped cells were identified as smaller objects with cut-offs from 15 to 100 micron and a lower intensity of at least 70 gray scales over background.
Additional morphometric measurements were made by counting labeled cell nuclei and measuring total area covered with cells per well. The data resulting from the screen were batch exported through MetaXpress and uploaded into a Collaborative Drug Discovery (CDD) cloud based database (Ekins and Bunin, 2013, Methods in molecular biology 993, 139-154.). Hits were selected on a cut-off of more than 3 standard deviations from mean using data normalized to reference wells in each plate. IC50 values (the half maximal inhibitory concentration) from confirmation experiments were calculated from dose-response signal curves using the Prism software (GraphPad Software).
Signal-to-background (S/B) ratio, standard variation and variation coefficients were calculated as the signal of DMSO treated wells divided by the signal of the hit compound (AA5) treated wells. […]

[1] = library compound plated with cells on day 1 on hydrogel, phenotype on day 7, 10 μM

SMILES | Dose response (20 point dose course, picomolar to millimolar) | Efficacy in secondary screen | Efficacy in primary screen [1] | Efficacy in primary screen (168 h, 10 µM)
COC(=O)/C=C/c1cc(O)ccc1O | ++ (++ = moderate effect) | ++ (++ = moderate effect) | +++ (+++ = strong effect) | –
CN(C)c1ccc(C(=C2C=CC(=[N+](C)C)C=C2)c2ccc(N(C)C)cc2)cc1.[Cl-] | – | ++ (++ = moderate effect) | +++ (+++ = strong effect) | –
NC(CP(=O)(O)O)C(=O)O (racemic) [±)-2-Amino-3-phosphonopropionic acid] | – | + | +++ (+++ = strong effect) | –
CN1CCC2(C)c3cc(O)ccc3N(C)C12.O=C(O)/C=C/C(=O)O (single isomer, unassigned; (-)) [(−)Eseroline fumarate salt., (−)Eseroline fumarate salt] | – | ++ (++ = moderate effect) | +++ (+++ = strong effect) | –
COc1ccc2c(c1)c(CC(=O)O)c(C)n2Cc1ccc(Cl)cc1 [1-(4-Chlorobenzyl)-5-methoxy-2-methylindole-3-acetic acid] | – | + | +++ (+++ = strong effect) | –
S=C(Nc1ccccc1)Nc1nccs1 [1-Pheny1-3-(2-thiazolyl)-2-thiourea] | – | + | +++ (+++ = strong effect) | –
CCCCC/C=C\C/C=C\C/C=C\C/C=C\CCCC(=O)NCc1ccc(O)c(OC)c1 [Arvanil] | – | + | +++ (+++ = strong effect) | –
CC(NC(C)(C)C)C(=O)c1cccc(Cl)c1 (stereo not drawn) [Bupropion hydrochloride] | – | + | +++ (+++ = strong effect) | –
CN1CCN(c2cccc(Nc3nc4c(-c5ccc(S(C)(=O)=O)cc5)cccn4n3)c2)CC1 [CEP-33779 JAK2 Inhibitor] | – | ++ (++ = moderate effect) | +++ (+++ = strong effect) | –
CC(C)(CO)Cc1cc(C(C)(C)C)c(O)c(C(C)(C)C)c1 [CGP-7930] | – | + | +++ (+++ = strong effect) | –
CC(C)(C=O)Cc1cc(C(C)(C)C)c(O)c(C(C)(C)C)c1 [CGP-13501] | – | + | +++ (+++ = strong effect) | –
CCCNC(=O)NS(=O)(=O)c1ccc(Cl)cc1 [Chlorpropamide] | – | + | +++ (+++ = strong effect) | –
Cc1cc(C2CCCCC2)n(O)c(=O)c1.NCCO [Ciclopirox ethanolamine., Ciclopirox ethanolamine] | – | ++ (++ = moderate effect) | +++ (+++ = strong effect) | –
O=P1(N(CCCl)CCCl)NCCCO1 (stereo not drawn) [Cyclophosphamide] | – | + | +++ (+++ = strong effect) | –
CSCC[C@@H](N)C(=O)O [D-methionine] | – | ++ (++ = moderate effect) | – | +++ (+++ = strong effect)
COC(=O)Nc1nc2ccc(Sc3ccccc3)cc2[nH]1 [Fenbendazole., Fenbendazole] | – | ++ (++ = moderate effect) | +++ (+++ = strong effect) | –
N#CC(C#N)=C(N)/C(C#N)=C/c1cc(O)c(O)c(O)c1 [Tyrphostin 51] | – | + | +++ (+++ = strong effect) | –
C[C@@H](N)[C@H]1CC[C@H](C(=O)Nc2ccncc2)CC1 [Y-27632 Rock Inhibitor] | – | ++ (++ = moderate effect) | +++ (+++ = strong effect) | –
NCCCC(=O)O [γ-Aminobutyric acid] | – | + | +++ (+++ = strong effect) | –
